Here are results for 13 compounds from US6664269B2, “Isoquinolinone derivatives” (Maybridge plc, priority 2001, dated 2003).

The test system of data set [1] is HeLa cells. Kind of data set: Dose Enhancing Factor: potentiation of bleomycin cell growth inhibition (SRB assay). It counts as cell-based. As to conditions: test compound 25 μM, bleomycin 0.5 μg/ml. Here is the method:
The Dose Enhancing Factor (DEF) is a ratio of the enhancement of cell growth inhibition elicited by the test compound in the presence of bleomycin compared to bleomycin alone. The test compounds were used at a fixed concentration of 25 μM. Bleomycin was used at a concentration of 0.5 μg/ml. The DEF was calculated from the formula: [formula]
GrowthTC is cell growth in presence of the test compound;
GrowthControl is cell growth of control cells;
Growthbleo is cell growth in presence of bleomycin; and
Growth(bleo+TC) is cell growth in presence of bleomycin and the test compound.
Cell growth was assessed using the sulforhodamine B (SRB) assay (Skehan, P., et al., 1990, J. Natl. Cancer Inst., 82, 1107-1112). 2,000 HeLa cells were seeded into each well of a flat-bottomed 96-well microtiter plate in a volume of 100 μl and incubated for 6 hours at 37° C. Cells were either replaced with media alone or with media containing the test compound at a final concentration of 25 μM. Cells were allowed to grow for a further 1 hour before the addition of bleomycin to either untreated cells or test compound treated cells. Cells untreated with either bleomycin or test compound were used as a control. Cells treated with test compound alone were used to assess the growth inhibition by the test compound.
Cells were left for a further 16 hours before replacing the media and allowing the cells to grow for a further 72 hours at 37° C. The media was then removed and the cells fixed with 100 μl of ice cold 10% (w/v) trichloroacetic acid. The plates were incubated at 4° C. for 20 minutes and then washed four times with water. Each well of cells was then stained with 100 μl of 0.4% (w/v) SRB in 1% acetic acid for 20 minutes before washing four times with 1% acetic acid. Plates were then dried for 2 hours at room temperature. The dye from the stained cells was solubilized by the addition of 100 μl of 10 mM Tris Base into each well. Plates were gently shaken and left at room temperature for 30 minutes before measuring the optical density at 564 nm on a Microquant microtiter plate reader.

The compound `COc1ccc(Cc2cc3ccccc3c(=O)[nH]2)cc1` [Compound 1, 3-(4-methoxybenzyl)-1-isoquinolinone] had a melting point of 216 to 218 °C. Also, in data set [1], the “DEF (Dose Enhancing Factor)” value is 1.15.

The compound `O=c1[nH]c(CCc2ccccc2)cc2ccccc12` [Compound 2, 3-(2-Phenylethyl)-1-isoquinolinone] gave a melting point of 198 to 200 °C. For the same compound, the “DEF (Dose Enhancing Factor)” value in data set [1] was 1.4.

As to `CCC(c1ccccc1)c1cc2ccccc2c(=O)[nH]1` (stereo not drawn) [Compound 3, 3-(1-Phenylpropyl)-1-isoquinolinone], the melting point lay within 179 to 180 °C.

With `COc1cccc(Cc2cc3ccccc3c(=O)[nH]2)c1` [Compound 4, 3-(3-Methoxybenzyl)-1-isoquinolinone], the melting point lay in the range of 208 to 210 °C. In data set [1], the “DEF (Dose Enhancing Factor)” value is recorded as 1.2.

For `O=c1[nH]c(Cc2ccccc2)cc2ccccc12` [Compound 5, 3-Benzyl-1-isoquinolinone], the melting point is 193 to 195 °C. Moreover, in data set [1], the “DEF (Dose Enhancing Factor)” value was 1.1.

Compound `O=c1[nH]c(Cc2ccc(F)cc2)cc2ccccc12` [Compound 6, 3-(4-Fluorobenzyl)-1-isoquinolinone] registered a melting point of 238 to 240 °C.

As to `O=c1[nH]c(Cc2cccc(O)c2)cc2ccccc12` [Compound 7, 3-(3-hydroxybenzyl)isoquinolinone], the melting point fell in the range of 225 to 227 °C. Moreover, in data set [1], the “DEF (Dose Enhancing Factor)” value was found to be 1.2.

`O=c1[nH]cc(Cc2ccccc2)c2ccccc12` [Compound 8, 4-benzyl-1-isoquinolinone] came in with a melting point of 217 to 220 °C.

Compound `O=c1[nH]cc(Cc2ccc(F)cc2)c2ccccc12` [Compound 9, 4-(4-Fluorobenzyl)-1-isoquinolinone] displayed a melting point of 185 to 188 °C.

Take `O=c1[nH]cc(Cc2ccc(F)c(F)c2)c2ccccc12` [Compound 10, 4-(3,4-Difluorobenzyl)-1-isoquinolinone]: the melting point is 148 to 150 °C.

`O=c1[nH]cc(Cc2cccc(F)c2)c2ccccc12` [Compound 11, 4-(3-Fluorobenzyl)-1-isoquinolinone] displayed a melting point of 132 to 134 °C.

For the compound `N#Cc1cccc(Cc2c[nH]c(=O)c3ccccc23)c1` [Compound 12, 4-(3-Cyanobenzyl)-1-isoquinolinone], the melting point fell in the range of 85 to 88 °C.

`O=c1[nH]cc(Cc2ccc(Br)cc2)c2ccccc12` [Compound 13, 4-(4-Bromobenzyl)-1-isoquinolinone] yielded a melting point of 180 to 182 °C.
